From patent publication US20110039935A1, “USE OF PHARMACOLOGICALLY ACTIVE CHEMICAL COMPOUNDS” (ENTRESS AB, priority 2007, published 2011)
Entries after “also recorded” stand apart in the source; their conditions may differ.

What was measured:
[1] = test system: abdominal aorta sections of elderly mice; settings: for elasticity of aorta sections (elastic recoil), first series of stretches: control 3.3×10^−5; for decrease in elastic recoil, second versus first series: repeated stretching protocol, control approximately 90%
Protocol: This time, experimental subjects that were in need of increased artery elasticity for a more general reason, namely advanced age, were studied.
Female NMRI mice, aged 50 weeks at the start of the trial, were housed at the animal facilities of the Department of Cell & Organism Biology, Lund University, Sweden. The animals were raised under the same conditions with a 12/12 hour light-dark cycle. Mice were fed rodent pellets ad libitum (Altromin no. 1314 Spezialfutterwerke, Lage, Germany) and given free access to drinking water. […] Mice allocated to Group 3 were only fed rodent pellets and were considered to be the Control group (n=6). The level of AKG fed as a supplement to the diet represented 2% of the voluntary feed intake of the mice, which was approx. 10-15% of body weight per day.
The mice were anaesthetized by exposure to 95% CO2 and killed by cervical dislocation. A dissected portion of the abdominal aorta, prior to the right- and left common iliac arteries, was carefully cleaned to remove adhering tissues. The aorta was cut into approx. 4.5 mm pieces with a diameter at rest of approx. 1 mm, and each piece was then securely attached at one end to a force transducer and at the other to a metal pin on a mounting block, as described in part (Harrison et al. Reprod Fertil Dev. 1997; 9(7):731-40, Harrison and Flatman Am J Physiol. 1999 December; 277(6 Pt 2):R1646-53).
Aorta sections were immersed into oxygenated and thermostatically controlled chambers (37° C.), having an internal depth and diameter of 5.5 and 3.2 cm, respectively, and holding 44 ml of phosphate buffered saline (0.15 M PBS, pH 7.4) comprising in mM; NaCl 136.91, KCl 2.68, Na2HPO4 8.08 and NaH2PO4 1.66. Force was measured using a FTO3 force displacement transducer (Grass Instrument, West Warwick, R.I.) connected to a home-built bridge amplifier which was interfaced with a 8S PowerLab A/D Converter (ADInstruments, Chalgrove, Oxfordshire, UK). […] The PowerLab 8S A/D converter was connected to an iBook G4 running Chart v.5.4 Software (AD Instruments, Australia). The data recording was at a sampling speed of 40.000 data samples per second (40 KHz) and the input impedance of the amplifier was 200 MΩ differential
Aorta sections were suspended vertically, and in duplicate. The recorded signal was adjusted to zero for un-tensioned aorta sections with the aid of an offset dial mounted on the pre-amplifier unit. Each aorta section was then exposed to approx. 5 step-wise increases in tension (each step being approx. 0.09 N), until a final maximal tension of 0.49 N (measured using the FT03 Grass Force transducer) was achieved. […] The aorta sections were then allowed to relax totally before being exposed to repeat step-wise increases in tension a further two more times, in close succession. Aorta sections were subsequently removed and weighed.
This fall in the recording trace was measured over time using the Average Slope calculation available as part of Chart v.5.4 Software (AD Instruments, Australia).
(§1) LaPlace's equation assumes the tension (T) in the wall of a hollow cylinder is directly proportional to the cylinders radius (r) and the pressure (p) across the wall, caused by the flow inside the cylinder, such that T=p×r. If one assumes that the tension in the wall of the aorta sections is equivalent to that recorded by the force transducer as the result of a manual stretch, then the pressure that would have given rise to such an increase in tension can be calculated using LaPlace's equation and the measured radius of each aorta section.

[2] = test system: excised aorta sections of elderly mice; test: Robustness of aorta sections to stretch (successful stretches without rupture); type: in vivo, NMRI mice; settings: for number of successful stretches without rupture, First Replicate / number of successful stretches without rupture, Second Replicate: 0.49 N max. tension stepwise, control 4 out of 6; for successful stretches without rupture, Mean (%): mean of two replicates, control 66.7
Protocol: Female NMRI mice, aged 50 weeks at the start of the trial, were housed at the animal facilities of the Department of Cell & Organism Biology, Lund University, Sweden. The animals were raised under the same conditions with a 12/12 hour light-dark cycle. Mice were fed rodent pellets ad libitum (Altromin no. 1314 Spezialfutterwerke, Lage, Germany) and given free access to drinking water. […] Mice in Group 1 were fed rodent pellets plus (2% w/v) Na2−AKG 2H2O (n=6), whilst mice in Group 2 were fed rodent pellets plus (2% w/v) Ca−AKG H2O (n=6). Mice allocated to Group 3 were only fed rodent pellets and were considered to be the Control group (n=6). The level of AKG fed as a supplement to the diet represented 2% of the voluntary feed intake of the mice, which was approx. 10-15% of body weight per day.
Aorta sections were suspended vertically, and in duplicate. The recorded signal was adjusted to zero for un-tensioned aorta sections with the aid of an offset dial mounted on the pre-amplifier unit. Each aorta section was then exposed to approx. 5 step-wise increases in tension (each step being approx. 0.09 N), until a final maximal tension of 0.49 N (measured using the FT03 Grass Force transducer) was achieved. This final level of tension was by no means close to the physiological maximum force recorded in aorta sections. The aorta sections were then allowed to relax totally before being exposed to repeat step-wise increases in tension a further two more times, in close succession. Aorta sections were subsequently removed and weighed.
In all the arteries studied, the initial stretch series (e.g. application of tension followed by relaxation) led to a decrease in elasticity with subsequent applications of tension. This effect may be compared to the sort of damage that would be expected to arise with a sudden increase in blood pressure (see FIG. 5).

[3] = test system: abdominal aorta sections of bypass and sham operated rats; test: Elastic recoil of aorta sections from bypass- and sham-operated rats given AKG; type: in vivo, Sprague Dawley rats
Protocol: A dissected portion of the abdominal aorta, prior to the right- and left common iliac arteries, was carefully cleaned to remove adhering tissues.
Force was measured using a FTO3 force displacement transducer (Grass Instrument, West Warwick, R.I.) connected to a home-built bridge amplifier which was interfaced with a 8S PowerLab A/D Converter (ADInstruments, Chalgrove, Oxfordshire, UK).
The recorded signal was adjusted to zero for un-tensioned aorta sections with the aid of an offset dial mounted on the pre-amplifier unit. Each aorta section was then exposed to approx. 5 step-wise increases in tension (each step being approx. 0.09 N), until a final maximal tension of 0.49 N (measured using the FT03 Grass Force transducer) was achieved. […] Aorta sections were subsequently removed and weighed.
as §1
Data are presented as mean±SE.

[4] = elderly mice fed 2% w/v in pellets for 182 days, n=6, mean±SE

Structure (SMILES) | elasticity of aorta sections (elastic recoil), first series of stretches [1, 4] | elasticity of aorta sections (elastic recoil), second series of stretches ([1]; elderly mice fed 2% w/v in pellets for 182 days, n=6, mean±SE, control 3.4×10^−6) | decrease in elastic recoil, second versus first series [1] | uptake after enteral administration | number of successful stretches without rupture, First Replicate [2] | number of successful stretches without rupture, Second Replicate [2] | successful stretches without rupture, Mean (%) [2] | effect compared to Na−AKG group ([1]; elderly mice, arterial elasticity) | effect on arterial elasticity compared with the control mice ([1]; elderly mice, first stretch series (FIG. 4)) | effect of AKG-intake on arterial elasticity in bypass-operated rats ([3]; B+AKG versus B−AKG, P=0.047) | effect of AKG-intake on aorta elasticity in sham-operated control rats ([3]; S+AKG versus S−AKG, P=0.44)
O=C([O-])CCC(=O)C(=O)[O-].[Na+].[Na+] [Na−AKG, sodium alpha-ketoglutarate] | 4.3×10^−5±1.6×10^−6 N ms^−1 mg^−1 wet wt | 3.7×10^−6±1.1×10^−6 N ms^−1 mg^−1 wet wt | 91% | faster uptake after enteral administration with higher peak blood levels | 4 out of 6 | 5 out of 6 | 75.0% | – | – | – | –
O=C([O-])CCC(=O)C(=O)[O-].[Ca+2] [Ca−AKG, calcium alpha-ketoglutarate] | 6.4×10^−5±2.7×10^−6 N ms^−1 mg^−1 wet wt | – | 94% | – | 4 out of 6 | 5 out of 6 | 75.0% | better effects | significant effect | – | –
O=C(O)CCC(=O)C(=O)O [AKG, alpha-ketoglutaric acid] | – | – | – | – | – | – | – | – | – | significant effect; also recorded: positive effect | no effect
